Results published in US12138322B2, “Method of preventing the development of melanoma” (Vector Vitale IP LLC, priority 2019, dated 2024).
“And” between values parts separate entries of the source, which are not always exact repeats. Equal values may be shown once. “Also recorded” adds a separate entry of the source. Marks after values point to notes of the source that are not given here.

System: B16 melanoma
Assay: B16 melanoma tumor growth and survival in mice, intratumoral administration
Format: in vivo, C57Bl/J6 mice
Parameters: key to presence or absence of tumor, individual animals: Tumor−: absence of tumor growth; Tumor+: presence of tumor; key to tumor volume, individual animals: tumor volume in mm^3, ellipsoid V = 4/3×π×a×b×c from radii
Conditions: for size of melanoma reduced compared to control: drug administered on the 11th day after inoculation; for tumor volume, individual animals: group 2, individual regimens
Procedure: B16 melanoma cells having the following characteristic were used in the experiment: • Origin: Mus musculus skin (C57BL/6 mouse) • Characteristics of tumor growth: short incubation period, rapid growth, absence of spontaneous metastases. • Tumor inoculability is 100%. The minimum dose of cells that causes tumor growth for this melanoma is only 100 to 1000 per subcutaneous injection in the mouse.
15 female C57Bl/J6 mice (5 mice per group) at the age of 10-12 weeks, weighing 18-22 g were used in the experiment.
B16 melanoma cells were cultured in vitro under standard conditions. For transplantation, tumor cells in the exponential phase were removed from the substrate with 0.02% Versene solution and the suspension cellularity and viability was evaluated in the presence of trypan blue in a hemocytometer and the suspension was adjusted to a concentration of 10^7 cells/ml by dilution with saline solution. Melanoma cells were injected intracutaneously (i.e.) in 0.05 ml of the suspension (0.5×10^6 cells/mouse) into the animal's back region. 24 hours before the injection of tumor cells, the wool cover on the back of each mouse was removed with depilation cream.
Grouping. The animals were divided into groups as follows: • Group No. 1: control group, mice injected i.e. with B16 melanoma cells; • Group No. 2: mice injected i.e. with B16 melanoma cells+intratumoral injections of ^64Zne(Asp)2 at day 5 after the tumor cells were inoculated. • Group No. 3: mice injected i.e. with B16 melanoma cells+intratumoral injections of ^64Zne(Asp)2 at day 11 after the tumor cells were inoculated
The composition to be administered was prepared immediately prior to its administration. ^64Zne(Asp)2 was dissolved in deuterium-depleted water with addition of 1% DMSO. Animals in group No. 2 were injected with the composition comprising ^64Zne(Asp)2 intratumorally and around the area of tumor growth at a dose of 200 μg/mouse in a volume of 20 μl/mouse after the tumor reached 0.5 cm in diameter (at day 5 after i.e. administration of the tumor cells).
Animals in group No. 3 were injected with the composition comprising ^64Zne(Asp)2 intratumorally and around the area of tumor growth at a dose of 300 μg/mouse in a volume of 30 μl/mouse at day 11 after i.e. administration of the tumor cells. […] 24 hours after the first injection and then a series of injections were given every other day. ^64Zne(Asp)2 was administered intratumorally every other day for 10 days, 5 times in total.
Regarding the 3rd group: group 3 mice received 300 mcg/mouse of ^64Zne in the form of ^4Zne aspartate on the 11th day and 200 mcg/mouse of ^4Zne aspartate on the 13th, 15th, 17th and 19th days after tumor cell injection.
The anti-tumor efficacy of ^64Zne(Asp)2 was evaluated on the basis of the growth dynamics of melanoma tumors estimated based on the changes in tumor volume according to generally accepted rules.
From the time the experimental tumors reached 0.3-0.5 cm in diameter and every 2-3 days thereafter, the size of each tumor node in experimental animals was measured in three orthogonal planes (width×length×height (W×L×H)) and the tumor volume was calculated by use of the following formula for the volume of ellipsoid: V= 4/3×πabc; where V is the tumor volume (mm^3); a, b, c is the rumor radius (mm): a is the radius along the x axis, b is the radius along the y axis, c is the radius along the z axis.

With `N[C@@H](CC(=O)[O-])C(=O)[O-].[Zn+2]` [^64Zne(Asp)2, Zinc L-aspartate] the “size of melanoma reduced compared to control” value (21st day) was 85%, the “size of melanoma reduced compared to control” value (24th day) was 75.6% and the “tumor volume, individual animals” value (4 day after tumor cell inoculation (before 1st injection)) was 14.1 and 33.5 and 24.4 (2×) and 25. For the same molecule, the “tumor volume, individual animals” value (6 day) was 14.1 (3×) and 33.5 and 65.4, the “tumor volume, individual animals” value (10 day) was 24.4 (2×) and 14 (2×) and 51 and the “tumor volume, individual animals” value (12 day) was 24.4 and 14 (3×) and 116.4. The “local finding at tumor site, individual animal” value (13 day, group 2) was “Eschar”, the “presence or absence of tumor, individual animals” value (“presence or absence of tumor” for short) (13 day, group 2) was “Tumor +/” and the “tumor volume, individual animals” value (14 day) was 14 (2×) and 4.2 and 38.4 and 9.2. The “tumor volume, individual animals” value (17 day) was 4.2 (3×) and 65.4 and 14, the “presence or absence of tumor” value (18 day, group 2) was “Tumor +/” and the “tumor volume, individual animals” value (21 day) was 0 (3×) and 179.6 and 33.5. For the same molecule, the “presence or absence of tumor” value (22 day, group 2) was “Tumor +/”, the “tumor volume, individual animals” value (24 day) was 25.4 and 0 (2×) and 282.7 and 33.5 and the “Tumor necrosis, individual animal” value (25 day, group 2) was “necrosis”. The “presence or absence of tumor” value (25 day, group 2) was “Tumor +/”, the “death of individual animal” value (28 day, group 2) was “Died*” and the “presence or absence of tumor” value (28 day, group 2) was “Tumor−; also recorded: Tumor +/”. For the same molecule, the “tumor volume, individual animals” value (28 day) was 33.2 and 0 (2×) and 641 and 102.6, the “presence or absence of tumor” value (36 day, group 2) was “Tumor +/; also recorded: Tumor−” and the “Tumor necrosis, individual animal” value (39 day, group 2) was “necrosis”. The “presence or absence of tumor” value (39 day, group 2) was “Tumor+; also recorded: Tumor−; also recorded: Tumor +/”, the “death of individual animal” value (43 day, group 2) was “Died*” and the “presence or absence of tumor” value (43 day, group 2) was “Tumor+; also recorded: Tumor−”. The “presence or absence of tumor” value (55 day, group 2) was “Tumor−”, the “Tumor necrosis, individual animal” value (58 day, group 2) was “necrosis” and the “presence or absence of tumor” value (58 day, group 2) was “Tumor +/; also recorded: Tumor−”. For the same molecule, the “death of individual animal” value (61 day, group 2) was “Died*”, the “presence or absence of tumor” value (61 day, group 2) was “Tumor−” and the “Tumor volume (M ± m)” value (day 4 after inoculation (before first injection), group 2: intratumoral 200 μg/mouse at day 5) was 24.3 mm^3. For the same molecule, the “Tumor volume (M ± m)” value (day 4 after inoculation (before first injection), group 3: intratumoral 300 μg/mouse at day 11, then 200 μg/mouse) was 27 mm^3, the “Number of alive mice” value (day 4 after inoculation, group 2: intratumoral at day 5, 5 animals per group) was 100% and the “Number of alive mice” value (day 4 after inoculation, group 3: intratumoral at day 11, 5 animals per group) was 100%. For the same molecule, the “Number of alive mice” value (day 6, group 2: intratumoral at day 5) was 100%, the “Number of alive mice” value (day 6, group 3: intratumoral at day 11) was 100% and the “Tumor volume (M ± m)” value (day 6 after inoculation (before first injection), group 3: intratumoral 300 μg/mouse at day 11, then 200 μg/mouse) was 63 mm^3. For the same molecule, the “Tumor volume (M ± m)” value (day 6 after inoculation, group 2: intratumoral 200 μg/mouse at day 5) was 28.2 mm^3, the “Number of alive mice” value (day 9, group 2: intratumoral at day 5) was 100% and the “Number of alive mice” value (day 9, group 3: intratumoral at day 11) was 100%. The “Tumor volume (M ± m)” value (day 9 after inoculation (before first injection), group 3: intratumoral 300 μg/mouse at day 11, then 200 μg/mouse) was 119 mm^3, the “Tumor volume (M ± m)” value (day 9 after inoculation, group 2: intratumoral 200 μg/mouse at day 5) was 25.6 mm^3 and the “Number of alive mice” value (day 12, group 2: intratumoral at day 5) was 100%. For the same molecule, the “Number of alive mice” value (day 12, group 3: intratumoral at day 11) was 80^+ %, the “Tumor volume (M ± m)” value (day 12 after inoculation, group 2: intratumoral 200 μg/mouse at day 5) was 36.6 mm^3 and the “Tumor volume (M ± m)” value (day 12 after inoculation, group 3: intratumoral 300 μg/mouse at day 11, then 200 μg/mouse) was 260 ± 20 mm^3. For the same molecule, the “Number of alive mice” value (day 14, group 2: intratumoral at day 5) was 100%, the “Number of alive mice” value (day 14, group 3: intratumoral at day 11) was 80% and the “Tumor volume (M ± m)” value (day 14 after inoculation, group 2: intratumoral 200 μg/mouse at day 5) was 16 ± 6^d mm^3. For the same molecule, the “Tumor volume (M ± m)” value (day 14 after inoculation, group 3: intratumoral 300 μg/mouse at day 11, then 200 μg/mouse) was 184 ± 51 mm^3, the “Number of alive mice” value (day 17, group 2: intratumoral at day 5) was 100% and the “Number of alive mice” value (day 17, group 3: intratumoral at day 11) was 80%. For the same molecule, the “Tumor volume (M ± m)” value (day 17 after inoculation, group 2: intratumoral 200 μg/mouse at day 5) was 18.4 mm^3, the “Tumor volume (M ± m)” value (day 17 after inoculation, group 3: intratumoral 300 μg/mouse at day 11, then 200 μg/mouse) was 250 mm^3 and the “Number of alive mice” value (day 21, group 2: intratumoral at day 5) was 100%. For the same molecule, the “Number of alive mice” value (day 21, group 3: intratumoral at day 11) was 80%, the “Tumor volume (M ± m)” value (day 21 after inoculation, group 2: intratumoral 200 μg/mouse at day 5) was 42.6 mm^3 and the “Tumor volume (M ± m)” value (day 21 after inoculation, group 3: intratumoral 300 μg/mouse at day 11, then 200 μg/mouse) was 375.4 mm^3. The “Number of alive mice” value (day 24, group 2: intratumoral at day 5) was 100%, the “Number of alive mice” value (day 24, group 3: intratumoral at day 11) was 60* % and the “Tumor volume (M ± m)” value (day 24 after inoculation, group 2: intratumoral 200 μg/mouse at day 5) was 68.3 mm^3. The “Tumor volume (M ± m)” value (day 24 after inoculation, group 3: intratumoral 300 μg/mouse at day 11, then 200 μg/mouse) was 881 mm^3, the “Number of alive mice” value (day 27, group 2: intratumoral at day 5) was 100% and the “Number of alive mice” value (day 27, group 3: intratumoral at day 11) was 60%. For the same molecule, the “Tumor volume (M ± m)” value (day 27 after inoculation, group 2: intratumoral 200 μg/mouse at day 5) was 155.4 mm^3, the “Tumor volume (M ± m)” value (day 27 after inoculation, group 3: intratumoral 300 μg/mouse at day 11, then 200 μg/mouse) was 2313.5 mm^3 and the “Number of alive mice” value (day 28, group 2: intratumoral at day 5) was 80* %. For the same molecule, the “Number of alive mice” value (day 28, group 3: intratumoral at day 11) was 40%, the “Number of alive mice” value (day 31, group 2: intratumoral at day 5) was 80% and the “Number of alive mice” value (day 31, group 3: intratumoral at day 11) was 40%. For the same molecule, the “animals in which growth of melanoma was suppressed by 100%” value (group No. 2, after a single intratumoral injection at day 5) was 2 out of 5 and the “tumor volume as % of the corresponding figure in the control group” value (intratumoral on the 5th day after inoculation, day of reading not given) was 4%.
